“Also recorded” adds a separate entry of the source. Ends that are not written are not given here.
Tests used:
Male ICR mice [1] = test: Tail suspension test (TST); assay type: in vivo, mouse
Method: We performed mouse behavioral experiments in accordance with our previous study. Male ICR mice (n = 199 in total) aged 5 weeks old were purchased from Shimizu Laboratory Supplies (Kyoto, Japan) and maintained in an animal facility for 7–12 days. They had free access to food and water and were kept in a 12-h light/dark cycle (08:00–20:00). Experiments were carried out between 11:00 and 17:00 in a quiet and air-conditioned experimental room, to which mice were habituated for 30–60 min before each experiment. Animal experiments were performed in accordance with the guidelines of the Physiological Society of Japan and were approved by the Committee for Animal Experiments of Kurashiki University of Science and the Arts. Peptides were dissolved in phosphate-buffered saline (PBS). Peptides were injected intracerebroventricularly (i.c.v.) 30 min before behavioral tests (typically 5 μL/mouse), according to a previous study. The mouse was placed into an anesthetizing jar, to which isoflurane (0.2 mL) was added immediately before. After confirming that the mouse was deeply anesthetized we injected the peptide into the right cerebral ventricle over 30 seconds and the injection needle was kept for 1 min after the injection (i.c.v. coordinates: 0 mm caudal to bregma, 1.0 mm lateral to the midline, and 3.5 mm below the skull). The mouse was placed in a cage set on a heating pad (approximately 33°C) for a few minutes until it spontaneously started to move, and then it was put back into its home cage. Each animal was used only once, except for the wheel running test, which was carried out immediately after the elevated plus-maze.
The tail suspension test (TST) was performed in accordance with the method reported previously. The mouse was hung on a hook using adhesive tape placed 2 cm from the extremity of its tail 50 cm above a table. The amount of time spent immobile was recorded for 5 min.

rat ROMK = target: T1, rat ROMK (Rattus norvegicus, UniProt P35560); test: Whole-cell patch-clamp of ROMK currents in 208–4 cells; assay type: cell-based; conditions: for inhibition at 1 µM / Activity (ROMK channel blocking activity, percentage of blockade at 1 μM): blockade at 1 μM estimated from fitted Hill curve (four parameters), whole-cell conductance; for inhibition at 1 µM: n = 3–6, read-out: Activity (ROMK channel blocking activity, percentage of blockade at 1 μM); for Activity (ROMK channel blocking activity, percentage of blockade at 1 μM): n = 3–6; for ROMK blocking activity (in words): whole-cell recordings
T1 construct: expressed in transfected cells; host or cells: 293T cell line 208-4 (lentiviral transduction, GFP coexpressed)
T1 sequence (P35560 1-391): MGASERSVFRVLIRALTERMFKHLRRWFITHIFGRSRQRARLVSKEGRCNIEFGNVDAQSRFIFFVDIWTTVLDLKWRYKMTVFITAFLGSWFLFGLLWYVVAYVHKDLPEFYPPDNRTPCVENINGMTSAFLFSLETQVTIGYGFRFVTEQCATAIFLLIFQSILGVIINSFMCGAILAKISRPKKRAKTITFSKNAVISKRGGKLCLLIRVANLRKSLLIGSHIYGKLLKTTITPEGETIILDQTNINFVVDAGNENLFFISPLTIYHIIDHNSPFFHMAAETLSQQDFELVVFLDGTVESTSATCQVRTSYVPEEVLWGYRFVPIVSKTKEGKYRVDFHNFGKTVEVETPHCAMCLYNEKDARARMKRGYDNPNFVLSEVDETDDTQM
Procedure, shortened: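 ROMK stably expressed in 208–4 cells; GIRK transiently in 293T, recorded 24 h post-transfection; 25°C, Tyrode (high-K+ 50 mM for GIRK), K-aspartate/KCl pipette with 3 mM MgATP. Steps −150 to 10 mV from −70 mV; currents 60 s after peptide; conductance from I-V slope −140 to −100 mV, Ba2+-resistant current subtracted, normalized to 0 μM TPN.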

Male ICR mice [2] = test: Forced swim test (FST); assay type: in vivo, mouse; conditions: i.c.v., 30 min before test, last 4 min of 6 min
Method: We performed mouse behavioral experiments in accordance with our previous study. Male ICR mice (n = 199 in total) aged 5 weeks old were purchased from Shimizu Laboratory Supplies (Kyoto, Japan) and maintained in an animal facility for 7–12 days. They had free access to food and water and were kept in a 12-h light/dark cycle (08:00–20:00). Experiments were carried out between 11:00 and 17:00 in a quiet and air-conditioned experimental room, to which mice were habituated for 30–60 min before each experiment. Animal experiments were performed in accordance with the guidelines of the Physiological Society of Japan and were approved by the Committee for Animal Experiments of Kurashiki University of Science and the Arts. Peptides were dissolved in phosphate-buffered saline (PBS). Peptides were injected intracerebroventricularly (i.c.v.) 30 min before behavioral tests (typically 5 μL/mouse), according to a previous study. The mouse was placed into an anesthetizing jar, to which isoflurane (0.2 mL) was added immediately before. […]
The forced swim test (FST) was performed in accordance with the method reported previously. […] The mouse was allowed to swim for 6 min and its activity was measured. […]

Compound | inhibition at 1 µM (rat ROMK) | Activity (ROMK channel blocking activity, percentage of blockade at 1 μM) (rat ROMK) | also measured
O=[N+]([O-])c1ccc2nc(COCc3nc4ccc([N+](=O)[O-])cc4[nH]3)[nH]c2c1 [VU591] |  |  | immobile time in TST (Male ICR mice [1]; i.c.v., 5 μL of 20 mM in dimethyl sulfoxide, n = 4 and 5): significantly decreased the immobile time
RRIIAHQK-NH2 [Peptide 27, TPN-RQ 7-13(P11A) + K] | < 20% |  | 
RRIIPAQK-NH2 [Peptide 28, TPN-RQ 7-13(H12A) + K] | < 20% |  | 
RRIIPHAK-NH2 [Peptide 29, TPN-RQ 7-13(Q13A) + K] | < 20% |  | 
RRIIPHMC-NH2 [Peptide 19, TPN-R 7–14] | < 20% |  | 
RRIIPHQC-NH2 [Peptide 20, TPN-RQ 7–14] | < 20% |  | 
RRIIPHQK-NH2 [Peptide 22, TPN-RQ 7–13 + K] | < 20% |  | 
TPN 1–8 (ALCNCNRI) [Peptide 4, Partial TPN peptide (8 amino acids)] |  | - (-, <20%) | 
TPN 2–9 [Peptide 5] |  | - (-, <20%) | 
TPN 3–10 [Peptide 6] |  | - (-, <20%) | 
TPN 11–18 [Peptide 14] |  | - (-, <20%) | 
TPN 12–19 [Peptide 15] |  | - (-, <20%) | 
TPN 13–20 [Peptide 16] |  | - (-, <20%) | 
TPN 14–21 [Peptide 17] |  | - (-, <20%) | 
TPN-RQ(C3S) [Peptide 45] |  | - (-, <20%) | immobile time in TST (Male ICR mice [1]; 750 pmole i.c.v., 30 min before test, 5 min recording): decreased the immobile time insignificantly; immobile time in FST (Male ICR mice [2]): decreased the immobile time insignificantly; ROMK blocking activity (in words) (rat ROMK; listed as TPN-C3S): little blocking activity; also recorded: scarcely blocked the channel
TPN-RQ(C5S) [Peptide 46] |  | - (-, <20%) | ROMK blocking activity (in words) (rat ROMK): little blocking activity; also recorded: scarcely blocked the channel
TPN-RQ(C14S) [Peptide 47] |  | - (-, <20%) | 
TPN-RQ(C18S) [Peptide 48] |  | - (-, <20%) | 
TPN-RQ(Ins9I) [Peptide 54] |  | - (-, <20%) | ROMK blocking activity (in words) (rat ROMK): abolished the activity
